The results in this text go back to patent US20110243924A1, “NOVEL METHODS” (priority 2007, published 2011).

Each structure is given as a SMILES string.

The target of series [1] is T1, M1 human muscarinic receptor (Homo sapiens, UniProt P11229).
T1 sequence (P11229 1-460): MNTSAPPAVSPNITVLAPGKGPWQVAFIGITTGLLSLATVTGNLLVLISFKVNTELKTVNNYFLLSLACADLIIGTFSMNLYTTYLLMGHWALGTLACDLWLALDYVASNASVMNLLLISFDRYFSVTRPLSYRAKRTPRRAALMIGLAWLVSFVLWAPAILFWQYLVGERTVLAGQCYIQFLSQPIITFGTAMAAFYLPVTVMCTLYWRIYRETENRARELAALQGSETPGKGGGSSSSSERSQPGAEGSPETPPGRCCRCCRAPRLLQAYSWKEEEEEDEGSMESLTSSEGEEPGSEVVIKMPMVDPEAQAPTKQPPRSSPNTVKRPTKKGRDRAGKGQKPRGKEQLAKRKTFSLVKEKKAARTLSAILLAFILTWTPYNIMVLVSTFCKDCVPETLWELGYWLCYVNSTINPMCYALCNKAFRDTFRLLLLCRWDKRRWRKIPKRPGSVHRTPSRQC
The series can be described thus: Binding of aclidinium metabolites to muscarinic receptors. On the procedure:
(§1) Aclidinium is rapidly hydrolyzed in human plasma in its alcohol and acid metabolites. […] The plasma half life of aclidinium in plasma is lower than 5 minutes for human. Moreover, aclidinium is stable in acid aqueous solutions (pH≦4) and the hydrolytic cleavage of the ester bond takes place at neutral and basic pHs.

For series [2], the target named is T2, M2 human muscarinic receptor (Homo sapiens, UniProt P08172).
T2 sequence (P08172 1-466): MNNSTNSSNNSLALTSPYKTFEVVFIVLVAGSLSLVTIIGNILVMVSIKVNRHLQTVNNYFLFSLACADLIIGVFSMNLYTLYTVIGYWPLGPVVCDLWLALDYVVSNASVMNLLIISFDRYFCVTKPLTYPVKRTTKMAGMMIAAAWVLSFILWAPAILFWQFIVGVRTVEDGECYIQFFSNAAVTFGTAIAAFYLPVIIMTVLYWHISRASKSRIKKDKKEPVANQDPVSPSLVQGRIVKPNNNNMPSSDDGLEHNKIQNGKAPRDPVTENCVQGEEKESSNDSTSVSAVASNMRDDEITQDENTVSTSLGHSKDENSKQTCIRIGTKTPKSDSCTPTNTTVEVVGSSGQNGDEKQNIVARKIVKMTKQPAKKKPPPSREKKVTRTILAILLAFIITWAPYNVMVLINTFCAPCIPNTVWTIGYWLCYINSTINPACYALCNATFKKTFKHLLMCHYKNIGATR
The series is described as above. On the procedure:
as §1

The target in series [3] is M3 human muscarinic receptor (Homo sapiens, UniProt P20309). The series is described as above. On the procedure: as §1
Series [4] concerns the target T3, M4 human muscarinic receptor (Homo sapiens, UniProt P08173).
T3 sequence (P08173 1-479): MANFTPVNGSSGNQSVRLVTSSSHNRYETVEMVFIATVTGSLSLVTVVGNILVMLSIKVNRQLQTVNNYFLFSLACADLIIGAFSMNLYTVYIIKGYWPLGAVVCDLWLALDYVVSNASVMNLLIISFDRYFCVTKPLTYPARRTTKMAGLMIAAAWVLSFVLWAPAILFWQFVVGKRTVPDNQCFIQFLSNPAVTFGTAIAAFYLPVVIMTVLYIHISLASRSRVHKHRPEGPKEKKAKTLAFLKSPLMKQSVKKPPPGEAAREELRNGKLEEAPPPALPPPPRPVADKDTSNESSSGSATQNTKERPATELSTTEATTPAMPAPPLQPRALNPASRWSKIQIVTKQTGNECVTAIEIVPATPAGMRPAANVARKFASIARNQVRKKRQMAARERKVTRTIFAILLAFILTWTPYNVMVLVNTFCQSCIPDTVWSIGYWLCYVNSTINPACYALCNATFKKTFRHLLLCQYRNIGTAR
The description is as above. On the procedure: as §1

Series [5] relates to Men with COPD. The series can be described thus: Clinical Phase II study, single inhaled doses by dry powder inhaler. It is filed as in vivo, human. To be noted: for mean FEV1 AUC(0-24)/24: placebo 1.597 L. The source says: Clinical Phase […] study: A double-blind, randothised, placebo-controlled, cross-over trial assesses the pharmacodynamics, pharmacokinetics and tolerability of aclidinium and its effects in COPD patients
Lung function measurements include FEV1 and FVC.

Series [6] relates to healthy male volunteers. The series can be described thus: Clinical Phase I study, single inhaled doses by dry powder inhaler. It is filed as in vivo, human. On the procedure:
Clinical Phase I study: Aclidinium bromide is tested in a Phase I, double-blind, partial cross-over, placebo controlled study to assess the activity, pharmacokinetics and tolerability of aclidinium.
Methods: 12 healthy male volunteers are randomly assigned to 1 of 4 treatment sequences comprising single doses of aclidinium (50, 300 and 600 micrograms) or placebo administered by dry powder inhaler. The washout period between administrations is at least 6 days. Efficacy endpoints are specific airway conductance (sGaw), airway resistance (Raw) and bronchial hyperresponsiveness (PC35 sGaw methacholine).

The nature of series [7]: Stability in aqueous solutions. Type of series: physicochemical. To be noted: pH≦4. The method, then: as §1
A short description of series [8]: In vitro stability in human plasma. Type of series: in vitro ADME. The note with it: human plasma (lithium heparin), 36° C.
Description: The in vitro experiments are carried out at 36° C. and at a concentration of 5 μg/ml (6 μl of a 1 mg/ml dimethyl sulfoxide solution of each substance is added to a final volume of 1.2 ml). After 3 minutes of pre-incubation, reaction is started by addition of the test substances. At pre-defined times of 0, 5, 15, 30 and 60 min., aliquots of 100 μl of the plasma are separated and the reaction stopped by the addition of 1 ml of a 20 mM, pH 4.0 sodium acetate buffer solution. The test substances are replaced with buffer for the control reactions. Human plasma is obtained from volunteers by written informed consent. The blood is collected in tubes containing lithium heparin as anticoagulant, immediately centrifuged at 4° C. and the resultant plasma stored at −20° C. when not in use.
Plasma samples, previously diluted with 1 ml of a 20 mM, pH 4.0 sodium acetate buffer solution, were loaded into the C2 cartridges. […] There are no significant endogenous peaks at retention times of the analytes that would interfere with their quantitation. […] The lower limit of quantitation is established at 5 mg/ml for all analytes.
[9] abbreviates: after inhaled single doses 100, 300, 900 micrograms.

Chain of M3 human muscarinic receptor (P20309 whole entry): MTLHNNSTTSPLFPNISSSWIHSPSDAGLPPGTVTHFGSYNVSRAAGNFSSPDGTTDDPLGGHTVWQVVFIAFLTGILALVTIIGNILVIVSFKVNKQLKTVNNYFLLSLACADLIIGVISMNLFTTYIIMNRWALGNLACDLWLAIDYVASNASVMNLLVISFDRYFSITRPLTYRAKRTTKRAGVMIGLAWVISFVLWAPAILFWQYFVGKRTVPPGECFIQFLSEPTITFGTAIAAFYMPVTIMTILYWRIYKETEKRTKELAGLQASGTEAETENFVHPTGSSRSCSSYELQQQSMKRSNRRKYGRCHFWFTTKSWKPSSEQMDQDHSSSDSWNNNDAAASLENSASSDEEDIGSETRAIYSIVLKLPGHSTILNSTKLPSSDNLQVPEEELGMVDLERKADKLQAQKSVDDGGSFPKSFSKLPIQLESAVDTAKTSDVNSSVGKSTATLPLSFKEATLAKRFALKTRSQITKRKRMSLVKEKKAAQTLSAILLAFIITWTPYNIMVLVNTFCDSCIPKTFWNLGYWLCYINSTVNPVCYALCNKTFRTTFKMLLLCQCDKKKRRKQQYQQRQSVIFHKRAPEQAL

In the case of `O=C(O)C(O)(c1cccs1)c1cccs1` [acid metabolite], the “affinity for M1 human muscarinic receptor” value in series [1] is given as “devoid of significant affinity”. The “affinity for M2 human muscarinic receptor” value in series [2] is listed as “devoid of significant affinity”. In addition, in series [3], the “affinity for M3 human muscarinic receptor” value is “devoid of significant affinity”. Besides, the “affinity for M4 human muscarinic receptor” value in series [4] is “devoid of significant affinity”. Moreover, the plasma levels result in series [5] (following the 900 microgram dose) is reported as “low levels”.
As a reminder, the half-life is the time needed for the level to fall by half in the phase considered. A low value points to rapid decline. `O=C(O[C@H]1C[N+]2(CCCOc3ccccc3)CCC1CC2)C(O)(c1cccs1)c1cccs1` [aclidinium, 3(R)-(2-hydroxy-2,2-dithien-2-ylacetoxy)-1-(3-phenoxypropyl)-1-azoniabicyclo[2.2.2]octane]: the “PC35 sGaw methacholine (methacholine dose required to decrease sGaw)” value is reported as 207.1 mg/mL in series [6] (aclidinium 300 micrograms, at 2 h, placebo 35.5); 142.7 mg/mL in series [6] (aclidinium 300 micrograms, at 24 h, placebo 27.1); 256.0 mg/mL in series [6] (aclidinium 600 micrograms, at 2 h, placebo 35.5); 181.7 mg/mL in series [6] (aclidinium 600 micrograms, at 24 h, placebo 27.1). Moreover, the detection in plasma result in series [6] (after inhaled single doses 50-600 micrograms) was “Neither aclidinium nor its metabolites are detected”. The study-drug-related adverse events entry in series [6] (single inhaled doses 50-600 micrograms) is listed as “no study-drug-related adverse events”. In addition, the “mean FEV1 AUC(0-24)/24” value in series [5] (aclidinium 100 micrograms, p=0.002) was found to be 1.800 L; in series [5] (aclidinium 300 micrograms, p<0.0001) it was 1.798 L; in series [5] (aclidinium 900 micrograms), 1.827 L. For the same compound, the plasma levels entry in series [5] (setting [9]) is “No plasma levels”. Also, the “cases of mildly increased sweating possibly related to treatment” value in series [5] (human, in vivo) stood at 1. In addition, the tolerability result in series [5] (single inhaled doses 100-900 micrograms) was “well tolerated”. In addition, the “cases of mild or moderate headache possibly related to treatment” value in series [5] (vs 2 with placebo) came out at 6 cases. Besides, in series [7], the “stability in acid aqueous solutions” value is reported as “stable”. In series [8], this compound had a half-life at 5 μg/ml of less than 5 min.
In the case of `O[C@H]1C[N+]2(CCCOc3ccccc3)CCC1CC2` [alcohol metabolite], in series [1], the “affinity for M1 human muscarinic receptor” value is “devoid of significant affinity”. Besides, in series [2], the “affinity for M2 human muscarinic receptor” value was “devoid of significant affinity”. The “affinity for M3 human muscarinic receptor” value in series [3] was “devoid of significant affinity”. In series [4], the “affinity for M4 human muscarinic receptor” value is “devoid of significant affinity”. In series [5] (setting [9]), the plasma levels result was “No plasma levels”.
